# Assay results reported in patent US20100048604A1, “Ligands for Aldoketoreductases” (priority 2004, published 2010).
# Changes are numbered by the printed parent chain.
# Assays:
# Assay type in all cases: biochemical
# AKR1C4 = molecular target: T1, AKR1C4 (Homo sapiens, UniProt P17516); test: Steady state kinetic parameters of fluorogenic substrates with purified AKR1C isozymes; set-up: key to activity as substrate (product formation): no activity = 10 μg enzyme produced less than 0.1 nmol product per min (determined fluorimetrically); details: isozyme 1C4, fluorimetric; for activity as substrate (product formation): 10 μg enzyme; for Kcat / Km: potassium phosphate buffer pH 6, NADPH
# T1 construct: gift of the Penning lab (University of Pennsylvania School of Medicine)
# T1 sequence (P17516 1-323): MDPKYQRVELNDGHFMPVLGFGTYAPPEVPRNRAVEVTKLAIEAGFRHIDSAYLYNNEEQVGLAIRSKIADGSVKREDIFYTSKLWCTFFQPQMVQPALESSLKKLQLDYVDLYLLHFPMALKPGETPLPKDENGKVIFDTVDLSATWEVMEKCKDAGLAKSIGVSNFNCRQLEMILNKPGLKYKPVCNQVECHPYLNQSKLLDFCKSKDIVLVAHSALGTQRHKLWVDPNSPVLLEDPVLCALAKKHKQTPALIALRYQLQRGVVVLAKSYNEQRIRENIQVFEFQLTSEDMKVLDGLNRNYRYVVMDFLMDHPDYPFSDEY
# Excerpt: (§1) AKR1C2 and AKR1C3 Selective Probes: Probes (5a-5i) were examined as substrates for the four purified human HSD isozymes (AKR1C1-AKR1C4) under standard assay conditions [catalytic quantities of enzyme, an excess of cofactor (NADPH)]. The initial reaction rates were used to derive standard kinetic parameters (kcat and Km, Materials and Methods).
# (§2) Substrate tolerance of AKR1Cs: Isozyme Activity with 5a-5i: Activity of the second generation of fluorogenic substrates with the AKR1C isozymes was determined as follows. To a STARNA semi-micro fluorimeter cell (with 4 polished windows) was added 100 μL of 1 M potassium phosphate buffer (pH 6), 840 μL doubly deionized water, and 20 μL of 12.5 mM NADPH. After mixing the aqueous components thoroughly, 20 μL of acetonitrile was added as a cosolvent and mixed well. 20 μL of 2.5 mM second generation fluorogenic ketone in acetonitrile (5a-5i) was then added and mixed. 4 μL of undiluted AKR1C (provided generously by the Penning lab at concentrations of 2.5 mg/mL) were then added to the cuvette for a total of 10 μg purified enzyme in the 1 mL assay volume. Fluorescence arising from the respective alcohol reduction product was then monitored over the course of 5-10 minutes.
# (§3) Binding constant and catalytic rates (Km and kcat) of the second generation of fluorogenic substrates was determined as follows. To a STARNA semi-micro fluorometer cell (with 4 polished windows) was added 100 μL of 1 M potassium phosphate buffer (pH 6), 840 μL doubly deionized water, and 20 AL of 12.5 mM NADPH. After mixing the aqueous components thoroughly, 20 μL of acetonitrile was added as a cosolvent and mixed well. 20 μL of the second generation fluorogenic ketone (5a-5i) was then added and mixed to achieve assay concentrations of 5Km to Km/5. To initiate the reduction, 2 or 4 μL of diluted AKR1C (1:2 to 1:100, depending on the kinetics of a particular isozyme's reduction of a substrate) was then added to the cuvette. Fluorescence arising from the respective alcohol reduction product was then monitored over the course of 3 minutes (Excitation and emission band pass slits both at 4 nm, lamp 700 V, λexc 410 nm, λem 510). The rate of product formation, expressed in units of nanomoles per minute, were calculated according to previously published procedures (Wierzchowski, J.; Dafeldecker, W. P.; Holmquist, B.; Vallee, B. L. Anal. Biochem. 1989, 178, 57-62):
# (§4) initial rate=[nst×(Ft−F0)/(Fst)]/t (1)
# (§5) where Ft and F0 represent the fluorescence at times t and 0 minutes, nst is the nanomoles of product in a known concentration of product, and Fst is the fluorescence resulting from nst of product. Kinetic parameters were approximated by GraFit (Erithacus Software, Surrey, UK) nonlinear regression analysis program to fit the untransformed data to a hyperbolic function as originally described (Wierzchowski, J.; Dafeldecker, W. P.; Holmquist, B.; Vallee, B. L. Anal. Biochem. 1989, 178, 57-62). Reported enzymatic kinetic parameters are the average of three independent determinations from three different preparations of substrate and enzyme.
# AKR1C2 = molecular target: T2, AKR1C2 (Homo sapiens, UniProt P52895); test: as above; set-up: key to activity as substrate (product formation): no activity = 10 μg enzyme produced less than 0.1 nmol product per min (determined fluorimetrically); details: isozyme 1C2, fluorimetric; for activity as substrate (product formation): 10 μg enzyme
# T2 construct: gift of the Penning lab (University of Pennsylvania School of Medicine)
# T2 sequence (P52895 1-323): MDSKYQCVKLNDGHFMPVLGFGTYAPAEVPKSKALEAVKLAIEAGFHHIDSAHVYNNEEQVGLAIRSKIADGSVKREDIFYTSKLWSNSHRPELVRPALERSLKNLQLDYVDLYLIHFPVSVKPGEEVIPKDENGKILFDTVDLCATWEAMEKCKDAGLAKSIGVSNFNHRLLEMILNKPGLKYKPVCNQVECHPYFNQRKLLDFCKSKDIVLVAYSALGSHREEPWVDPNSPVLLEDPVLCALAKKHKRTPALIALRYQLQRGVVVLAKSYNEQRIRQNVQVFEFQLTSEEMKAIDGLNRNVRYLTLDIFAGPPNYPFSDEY
# Excerpt: as §1, §2, §3, §4, §5
# AKR1C3 [1] = molecular target: T3, AKR1C3 (Homo sapiens, UniProt P42330); test: as above; details: isozyme 1C3, fluorimetric; for activity as substrate (product formation): 10 μg enzyme; for Kcat / Km: potassium phosphate buffer pH 6, NADPH
# T3 construct: gift of Professor Trevor Penning (University of Pennsylvania School of Medicine)
# T3 sequence (P42330 1-323): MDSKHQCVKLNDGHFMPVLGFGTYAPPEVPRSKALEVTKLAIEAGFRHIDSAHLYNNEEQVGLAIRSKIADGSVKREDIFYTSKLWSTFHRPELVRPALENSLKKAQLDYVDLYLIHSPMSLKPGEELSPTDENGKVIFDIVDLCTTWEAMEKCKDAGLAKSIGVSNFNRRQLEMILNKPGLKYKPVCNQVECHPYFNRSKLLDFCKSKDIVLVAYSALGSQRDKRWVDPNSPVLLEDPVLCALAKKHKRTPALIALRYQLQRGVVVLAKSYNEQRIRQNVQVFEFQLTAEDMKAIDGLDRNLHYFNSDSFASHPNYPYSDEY
# Method: The initial reaction rates were used to derive standard kinetic parameters (kcat and Km, Materials and Methods).
# as §2, with “To a STARNA semi-micro fluorimeter cell (with 4 polished windows) was added 100 μL of 1 M potassium phosphate buffer (pH 6), 840 μL doubly deionized water, and 20 μL of 12.5 mM NADPH.” left out, “20 μL of 2.5 mM second generation fluorogenic ketone in acetonitrile (5a-5i) was then added and mixed.” left out
# Binding constant and catalytic rates (Km and kcat) of the second generation of fluorogenic substrates was determined as follows. […] After mixing the aqueous components thoroughly, 20 μL of acetonitrile was added as a cosolvent and mixed well. […] To initiate the reduction, 2 or 4 μL of diluted AKR1C (1:2 to 1:100, depending on the kinetics of a particular isozyme's reduction of a substrate) was then added to the cuvette. Fluorescence arising from the respective alcohol reduction product was then monitored over the course of 3 minutes (Excitation and emission band pass slits both at 4 nm, lamp 700 V, λexc 410 nm, λem 510).
# as §4
# where Ft and F0 represent the fluorescence at times t and 0 minutes, nst is the nanomoles of product in a known concentration of product, and Fst is the fluorescence resulting from nst of product. […] Reported enzymatic kinetic parameters are the average of three independent determinations from three different preparations of substrate and enzyme.
# AKR1C1 = molecular target: T4, AKR1C1 (Homo sapiens, UniProt Q04828); test: as above; set-up: key: no activity = 10 μg enzyme produced less than 0.1 nmol product per min (determined fluorimetrically); details: isozyme 1C1; 10 μg enzyme, fluorimetric
# T4 construct: gift of the Penning lab (University of Pennsylvania School of Medicine)
# T4 sequence (Q04828 1-323): T2 sequence (P52895 1-323) with V38T, H47R, V54L, S87C, M151V, H170R, L172Q
# Excerpt: as §1, §2, §3, §4, §5
# AKR1C3 [2] = molecular target: T3, AKR1C3; test: Determination of kinetic parameters for AKR1C3 (fluorogenic substrate 5); details: Type 2 isozyme of 3α-HSD (AKR 1C3)
# Method: Whether the activity of human enzymes may be imaged by probe 5 was investigated. Type 2 isozyme of 3α-HSD (AKR 1C3) was selected for this study owing to its important physiological role.
# Fluorogenic substrate 5 reduction was monitored on a Hitachi F-4500 fluorimeter in Starna quartz cuvettes fluorometrically in 1 mL systems containing 100 mM potassium phosphate pH 6.0 containing excess of NADPH cofactor (250 μM) and various amounts of the substrate (0.1953-50 μM) dissolved in 4% acetonitrile. […] Cuvettes were mixed thoroughly after addition of cofactor, cosolvent, and substrate. Reactions were initiated by the addition of 4 μL of dilute AKR1C3 (115 μg/mL) and were corrected for nonenzymatic rates. All reactions were followed by monitoring the increase in fluorescence of the product alcohol for 5 minutes at λem 510 nm with λex 440 nm (Excitation and emission band pass slits both at 2.5 nm, lamp 900 V) at 37° C. The initial velocities, expressed in units of nanomoles per minute, were calculated according to previously published procedures (Wierzchowski, J.; Dafeldecker, W. P.; Holmquist, B.; Vallee, B. L. Anal. Biochem. 1989, 178, 57-62): initial rate=[nst×(Ft−F0)/(Fst)]/t where Ft and F0 represent the fluorescence at time t and 0, nst is the nanomoles of the product standard, and Fst is the fluorescence resulting from nst of product. Kinetic constants were approximated using the GraFit (Erithacus Software, Surrey, UK) non-linear regression analysis program to fit the untransformed data to a hyperbolic function as originally described (Wilkinson, G. N. Biochem. J. 1961, 80, 324-332), yielding estimated values of kcat, Km, and their associated standard errors.
Structure (SMILES),activity as substrate (product formation) (AKR1C4),activity as substrate (product formation) (AKR1C2),activity as substrate (product formation) (AKR1C3 [1]),activity as substrate (product formation) (AKR1C1),Kcat (AKR1C3 [1]) [s⁻¹],Km (AKR1C3 [1]) [µM],Kcat (AKR1C4) [s⁻¹],Km (AKR1C4) [µM],"Kcat (AKR1C2; potassium phosphate buffer pH 6, NADPH) [s⁻¹]",Kcat (AKR1C3 [2]) [s⁻¹],Km (AKR1C3 [2]) [µM]
CC(C)C(=O)c1cc(=O)oc2c3c4c(cc12)CCCN4CCC3,no activity,no activity,no activity,no activity,,,,,,,
O=C(c1cc(=O)oc2c3c4c(cc12)CCCN4CCC3)C1CCCCC1,no activity,no activity,no activity,no activity,,,,,,,
O=C1CCc2c1c1cc3c4c(c1oc2=O)CCCN4CCC3,no activity,,,,0.12,0.13,,,,,
CC(=O)c1cc(=O)oc2cc(N(C)C)ccc12,,,,,0.145,4.3,0.035,14.8,,,
CC(=O)c1cc(=O)oc2cc3c(cc12)CCCN3,no activity,,,no activity,0.155,4.3,,,0.00983,,
CC(=O)c1cc(=O)oc2c3c(ccc12)NCCC3,,,,,0.115,8.3,0.0233,40.2,,,
"C[C@]12CCC(=O)C[C@@H]1CC[C@@H]1[C@@H]2CC[C@]2(C)[C@@H](O)CC[C@@H]12 [5α-dihydrotestosterone, reference compound]",,,,,0.00417,26,,,,0.00417,26
CC(=O)c1cc(=O)oc2c3c4c(cc12)CCCN4CCC3 [drawing 207],,,,,0.125,1.1,0.00633,20.6,,,
O=C(c1ccccc1)c1cc(=O)oc2c3c4c(cc12)CCCN4CCC3 [drawing 210],,,,,0.09,0.051,0.0103,6.2,,,
CC(=O)c1c(Br)c(=O)oc2c3c4c(cc12)CCCN4CCC3 [drawing 212],no activity,no activity,no activity,no activity,,,,,,,
CC(=O)c1c(-c2ccccc2)c(=O)oc2c3c4c(cc12)CCCN4CCC3 [drawing 213],no activity,no activity,no activity,no activity,,,,,,,
